Results published in paper PMC4549706, “Rational Design of Highly Potent and Slow-Binding Cytochrome bc1 Inhibitor as Fungicide by Computational Substitution Optimization” (Scientific Reports, 2015).
≈ marks a conversion by molar mass, not a printed value. Read-outs that look alike come from different tables or passages of the source.

Tested on: Pseudoperonospora cubensis (P. cubensis)
Experiment: Greenhouse fungicidal activity, potted cucumber, downy mildew
Format: in vivo
Procedure: For a further validation, the controlling efficacy of compound 18 against downy mildew and powdery mildew disease was tested in greenhouse and field models.
The fungicidal activity of compound 18 against P. cubensis and S. fuliginea was evaluated according to a previously published method[30] and a potted-plant test method was adopted. […]
Greenhouse Fungicidal Activity
The fungicidal activity of compound 18 against P. cubensis and S. fuliginea was evaluated according to a previously published method 17 and a potted-plant test method was adopted. Commercial fungicide AZ was evaluated as a control under the same conditions.
Cucumber seeds were soaked in water for 2 h at 50℃ and then were kept moist for 24 h at 28℃ in an incubator. When the radicles grew to 0.5 cm, the seeds were grown in plastic pots containing a 1:1 (v/v) mixture of vermiculite and peat. At the stage of two leaves, all of the cucumber plants used for inoculations were divided into two groups to test for protective and curative effects. In the protective action, compound 18 and commercial fungicide AZ were sprayed on the leaves before the inoculation. However, the fungal inoculation and chemical spraying are reverse in the […] action.
In the protective action, compound 18 and commercial fungicide AZ were sprayed with a hand spray on the surface of the seed leaves at concentrations of 200, 100, 50, 25, 12.5, 6.25, 3.125, 1.5625 mg/L. After 2 h, inoculations of P. cubensis and S. fuliginea were carried out by spraying a conidial suspension (concentration […]), which was repeated 4 times.
After inoculation, the cucumber seedlings were cultured in a culture room at 25±2℃, 70%~80% relative humidity, and 16L:8D photoperiod for 8 d. In the curative action, the fungal inoculation and chemical spraying were reversed with the protective action. Foliar spray with fungicides to inoculated cucumber plants (before disease expression) till near-run-oﬀ was made on the 7th and 15th day after emergence. The fungicidal activity was evaluated when the nontreated cucumber plant fully developed symptoms. The area of inoculated and treated leaves covered by disease symptoms was assessed and compared to that of nontreated ones to determine the average disease index.
The disease range (i) was visually evaluated on the […]rst true leaf and ranked as a percentage infected area using a rating of 0, 1, 3, 5, 7, or 9, denoting proportions of disease over the whole leaf area of 0%, < 5%, 6–10%, 11–25%, 26–50%, and > 50%, respectively 18.
The disease index and control effect of compound 18 were calculated via the following […]
Disease index (%) = ∑(Ni × i)/(N × 9) × 100 […]

Which results are given for `CO/C=C(/C(=O)OC)c1ccccc1Oc1cc(Oc2ccccc2C#N)ncn1` [AZ, Azoxystrobin, reference compound]?
EC90 (greenhouse, cucumber, sprayed after inoculation, read-out: curative EC90 against P. cubensis): 50.7 µg/mL (≈ 126 µM); EC90 (greenhouse, cucumber, sprayed before inoculation, read-out: protective EC90 against P. cubensis): 5.36 µg/mL (≈ 13.3 µM)

For `COC=C(C(=O)OC)c1ccccc1CSc1nc2cc(OC)ccc2s1` [Compound 18], which EC90 (read-out: curative EC90 against P. cubensis) is on record?
The EC90 was 120 µg/mL (≈ 300 µM).

And the EC90 (read-out: protective EC90 against P. cubensis)?
Its EC90 is 4.29 µg/mL (≈ 10.7 µM).
